Read-outs that look alike come from different tables or passages of the source. Marks after values point to notes of the source that are not given here.
Tests used:
[1] = test system: extensive stage small cell lung cancer; conditions: IMpower133 treatment arm, ITT, with chemotherapy; cited from earlier work
[2] = test system: extensive stage small cell lung cancer; conditions: CASPIAN treatment arm, ITT, with chemotherapy; cited from earlier work
[3] = test system: Regulatory T cells (% of CD4+ T cells); test: Regulatory T cells in blood of IMPULSE patients, flow cytometry; assay type: in vivo, human
[4] = test system: metastatic colorectal cancer; test: IMPALA phase III trial (NCT02077868), progression-free survival; assay type: in vivo, human
Source text: An international, multicentre, open-label phase III trial conducted on 549 metastatic colorectal cancer patients in 8 EU countries. […] After progression, patients started re-induction therapy, with those in the experimental arm continuing to receive lefitolimod in addition.

[5] = test system: extensive stage small cell lung cancer; test: IMPULSE phase II trial (NCT02200081), switch maintenance vs continuation maintenance, survival; assay type: in vivo, human
Source text: An international, multicentre, open-label phase II trial conducted on 102 extensive stage small cell lung cancer after platinum based first line therapy patients. Patients who had received four cycles of first line induction chemotherapy (platinum-based) were randomized to receive either combination lefitolimod maintenance therapy, or local standard of care (control). After progression, patients received second line therapy.
The phase II IMPULSE study explored the benefit in OS of an immunotherapeutic switch maintenance therapy of ES-SCLC by the TLR9 agonist lefitolimod (dSLIM-30L1). In comparison to the various local standards of care (SoC), typically carboplatin plus etoposide, or cisplatin plus etoposide. […] A combinatorial post hoc analyses was performed of all accessible immunological data and relevant clinical parameters of the IMPLUSE study. Additionally, in order to determine in what conditions adaptive or innate immune stimulation may enhance chemotherapy outcomes, published mPFS and mOS data from the respective treatment and control arms for chemotherapy immunomodulation maintenance studies utilizing PD-L1 inhibitor-antibodies were incorporated, comparing the use of checkpoint inhibitors with the TLR9 agonist used in IMPULSE.
All lung cancer trials used (IMPULSE, IMpower133, CASPIAN, Keynote-604, and EA5161) are “maintenance” trials, wherein an immune induction treatment, a set of chemotherapy cycles, is applied to initiate anti-tumour responses (as defined by RECIST guidelines), followed by maintenance therapy until tumour progress. IMpower133, CASPIAN, Keynote-604, and EA5161 are “continuation maintenance” trials, whereas IMPULSE is a “switch maintenance” trial. In the four continuation maintenance trials, the immunomodulatory product (IMP), i.e., the respective […] checkpoint inhibitors (CPI) atezolizumab, durvalumab, pembrolizumab, or nivolumab, are present during induction chemotherapy and in the maintenance phase. In the switch maintenance trial IMPULSE, the IMP lefitolimod is not used during induction chemotherapy but introduced (“switched” to) in the maintenance phase of the trial (FIG. 1). Thus, for comparison of IMPULSE PFS and OS data with the other studies, IMPULSE mPFS1 and mOS1 were factored from the start of induction chemotherapy. Therefore, for all following analyses, the respective mOS1 values of IMPULSE are used.

[6] = test system: extensive stage small cell lung cancer; conditions: EA5161 treatment arm, ITT, with chemotherapy; cited from earlier work
[7] = test system: extensive stage small cell lung cancer; conditions: Keynote-604 treatment arm, ITT, with chemotherapy; cited from earlier work
[8] = Baseline, end of 4th cycle of induction PE chemotherapy
[9] = Visit 2, days 118-125 from start of induction PE chemotherapy
[10] = Visit 3, days 146-153 from start of induction PE chemotherapy
[11] = Visit 4, days 188-195 from start of induction PE chemotherapy

Atezolizumab: PD-L1 inhibiting antibody (Roche AG; CAS No. 1380723-44-3), IMpower133 trial
mOS treatment [1]: 12.3 m

Durvalumab: PD-L1 inhibiting antibody (Astra Zeneca, CAS No. 1428935-60-7), CASPIAN trial
mOS treatment [2]: 13.0 m

Lefitolimod
Regulatory T cells, Max [3, 8]: 12.22 % of CD4+ T cells
Regulatory T cells, Mean [3, 8]: 7.3905 % of CD4+ T cells
Regulatory T cells, Median [3, 8]: 7.470 % of CD4+ T cells
Regulatory T cells, Min [3, 8]: 4.19 % of CD4+ T cells
Regulatory T cells, Max [3, 9]: 13.65 % of CD4+ T cells
Regulatory T cells, Mean [3, 9]: 8.2827 % of CD4+ T cells
Regulatory T cells, Median [3, 9]: 8.100 % of CD4+ T cells
Regulatory T cells, Min [3, 9]: 4.44 % of CD4+ T cells
Regulatory T cells, Max [3, 10]: 13.06 % of CD4+ T cells
Regulatory T cells, Mean [3, 10]: 8.7502 % of CD4+ T cells
Regulatory T cells, Median [3, 10]: 8.905 % of CD4+ T cells
Regulatory T cells, Min [3, 10]: 4.27 % of CD4+ T cells
Regulatory T cells, Max [3, 11]: 16.33 % of CD4+ T cells
Regulatory T cells, Mean [3, 11]: 9.5175 % of CD4+ T cells
Regulatory T cells, Median [3, 11]: 9.205 % of CD4+ T cells
Regulatory T cells, Min [3, 11]: 5.82 % of CD4+ T cells
fraction of regulatory T cells (Treg) ([3]; over duration of treatment, IMPULSE): increases with duration
mPFS compared to control ([4]; patients receiving re-induction treatment followed by cycles of chemotherapy and lefitolimod): significantly superior
mPFS compared to the control arm ([4]; switch-maintenance therapy): inferior
mOS treatment ([5]; IMPULSE treatment arm, ITT, mOS1 calculated from start of induction chemotherapy): 12.4* m
gain in mOS ([5]; OS1, 5 cycles vs 4 cycles of PE chemotherapy followed by TLR9 agonist (FIG. 2)): 2.3 m
efficacy in terms of mOS ([5]; applied subsequent to platinum-based chemotherapy rather than in combination, IMPULSE compared to IMPALA): more efficacious
mOS improved by ([5]; four qw3 PE cycles followed by a 5th cycle with PE in week 1 and TLR9 agonist in weeks 2 and 3 (FIG. 2)): 2.3 months
PFS1 ([5]; full analysis set (FAS)): 6.1 months
mOS1 ([5]; patient subgroup (FIG. 6)): 10.7 months
mOS1 ([5]; patient subgroup with PFS threshold >6.2 months (FIG. 6)): 17.1 months
benefit by mPFS or mOS compared to local standards of care ([5]; switch maintenance therapy, all patients): No additional benefit
median OS in certain subgroups of patients ([5]; switch maintenance therapy, subgroups): strong median OS improvements

Nivolumab: checkpoint inhibitor antibody (Bristol-Myers Squibb; CAS No 946414-94-4), EA5161 trial
mOS treatment [6]: 11.3 m

Pembrolizumab: checkpoint inhibitor antibody (Merck Inc.; CAS No. 1374853-91-4), Keynote-604 trial
mOS treatment [7]: 10.8 m

From US20240285671A1, “SEQUENTIAL INNATE AND ADAPTIVE IMMUNE MODULATION FOR CANCER TREATMENT” (Gentechnologiestiftung- Dr. Georg und Ingeburg Scheel …, priority 2021, published 2024)
